Measured values taken from patent US20040259764A1, “Reticulocyte depletion signatures” (priority 2002, published 2004).
Read-outs that look alike come from different tables or passages of the source. Marks after values point to notes of the source that are not given here.

How the values were obtained:
[1] = system: Reticulocyte Depletion Signature (Alas2 and peripherin probes), bone marrow
Text: (§1) Compound dosing was based on the acute dose LD50s recorded in published reference or literature sources. […] The MTD (maximum tolerated dose) was then selected as the dose at which the animals […] 5-10% body weight during the 5-day range finding study. […] In addition, the clinical observations must show no or mild clinical signs during the whole of the range-finding study. At the next highest dose, signs and symptoms of adverse effects and exceeding those of the MTD should be seen to occur. Should these criteria not be met, the range-finding study is repeated using a modified dose range.
(§2) After determination of the MTD and FED for a compound, each compound was dissolved in a vehicle for administration on day 1 of the study (additional daily doses were stored as frozen aliquots from this initial formulation). Each compound was administered to three individual male Sprague-Dawley rats for each of the two doses (MTD and FED) for one of four different times (0.25 day, 1 day, 3 days, and 5 days), yielding a total of up to 24 animals per compound study. Vehicle choice was based on solubility of the compound, effect of food on adsorption, and the vehicles used in the literature reports examined during the FED selection investigations, described above. Generally, the route and vehicle in which the FED was defined are used. When there was a choice of routes and vehicles, oral routes were chosen over injection routes. Many compounds, especially oncolytics, are only administerable intravenously. In such cases, the compound was administered as an intravenous formulation into the tail vein. Orally administered compounds were given dissolved in either water, 1% carboxymethycellulose (CMC) or corn oil. Intravenously and intraperitoneally administered compounds were given in 0.9% saline. Subcutaneously administered compounds were given in corn oil. Animal body weights were determined at 1 day and, where appropriate, at 4 days, before necropsy, and clinical observations were made on a daily basis. Control animals were dosed with vehicle only. Three male animals were used for each dose and time combination used for the compound treatment.
(§3) Tissue harvest and handling: After the allocated treatment time, the tissues from the animals were harvested. […] All the tissues collected were divided to provide samples for histopathological analyses, and the remainder of each tissue was then snap-frozen.
(§4) Preparation of enriched mRNA: Punch biopsies were taken from the frozen tissues and were completely homogenized before being processed using the MagNA Pure robot. (Roche Diagnostics Corp., Indianapolis, Ind.) in combination with the MagNA Pure LC RNA Isolation kit II (Roche Diagnostics Corp). The amount of lysis buffer was adjusted to allow 1 ml per 50 mg for liver tissue, or 1 ml per 80 mg for all other tissues. After complete homogenization and before loading of the samples into the 32-well MagNA Pure plate, the samples were syringed 5-6 times using a 20-gauge 3-ml syringe to ensure a smooth solution for robotic processing. Tissue sample processing was performed in duplicate wells (loading 150 μl of homogenized sample and 150 μl of additional lysis buffere to each well) of the MagNA Pure LC, which is programmed to extract mRNA using oligo-dT selection technology into a final elution volume of 100 μl. Poly A(+) RNA sample concentration was performed using a standard ethanol precipitation protocol in the presence of glycogen (50 μg/ml). After precipitation the final purified mRNA sample was resuspended in 7 μl DEPC-treated water and quantified using a Ribogreen high-range assay (Molecular Probes) on the Victor-Wallace II Fluorometer (Perkin-Elmer).

[2] = system: Reticulocyte Depletion Signature (Alas2 and peripherin probes), liver
Text: as §1, §2, §3, §4

[3] = system: Reticulocyte Depletion Signature (Alas2 and peripherin probes), spleen
Text: as §1, §2, §3, §4

[4] = system: two specific reticulocyte-enriched transcripts
Description: as §2, §3
as §4, with “(Perkin-Elmer). Additionally, the integrity of each mRNA sample was determined using the Agilent 2100 BioAnalyzer (Agilent Technologies, Palo Alto, Calif.) in combination with the RNA 6000 Nano Lab Chip kit (Agilent Technologies).” for “(Perkin-Elmer).”
0.6-20 μg of enriched mRNA from different tissue sources was processed into cRNA in the presence of different bacterial control mRNAs (1.5pg FixA, 5pgYjek, 5pg AraB, 15pg EntF, 50pg FixB, 150pg HisB, 500pg LeuB, 1500pg Gnd) and with the modification of the addition of 1.0 μl of 100 pmol/μl HPLC-purified T7-(dT)24 oligonucleotide primer instead of a 0.5 pmol/μl unpurified T7-(dT)24 primer.
The slides were rinsed in distilled, deionized water (dd-H2O) with 0.05% Tween-20® twice for 5 seconds each before they were dried by centrifugation and stored in light protective slide boxes.

[5] = bone marrow data, signature derived from liver, * = p < 0.01
[6] = liver data, highest training treatment normalised to 100, * = p < 0.01
[7] = spleen data, signature derived from liver, * = p < 0.01
[8] = rat liver, dose, route and vehicle per compound as

Cn1cnc([N+](=O)[O-])c1Sc1ncnc2nc[nH]c12 [AZATHIOPRINE, 6-((1-methyl-4-nitro-1H-imidazol-5-yl)thio)-1H-purine]
SPS (Bone Marrow) ([1]; rat, in vivo): 27 | Signature Projection Score (SPS) ([2]; rat, in vivo): 90* | SPS (Spleen) ([3]; rat, in vivo): 122* | signal intensity for two specific reticulocyte-enriched transcripts as compared with vehicle-treated control animals ([4]; rat, in vivo): significantly decreased

Nc1ccn([C@@H]2O[C@H](CO)[C@@H](O)[C@@H]2O)c(=O)n1 [CYTARABINE, 4-amino-1-β-D-arabinofuranosyl-2(1H)-pyrimidinone]
SPS (Bone Marrow) ([1]; rat, in vivo): 0 | Signature Projection Score (SPS) ([2]; rat, in vivo): 58* | SPS (Spleen) ([3]; rat, in vivo): 17 | signal intensity for two specific reticulocyte-enriched transcripts as compared with vehicle-treated control animals ([4]; rat, in vivo): significantly decreased

COc1cccc2c1C(=O)c1c(O)c3c(c(O)c1C2=O)C[C@@](O)(C(=O)CO)C[C@@H]3O[C@H]1C[C@H](N)[C@H](O)[C@H](C)O1 [DOXORUBICIN, (8S-cis)-10-((3-amino-2,3,6-trideoxy-γ-L-lyxo-hexopyranosyl)oxy)-7,8,9,10-tetrahydro-6,8,11-trihydroxy-8-(hydroxyacetyl)-1-methoxy-5,12-naphthacene-dione]
SPS (Bone Marrow) ([1]; rat, in vivo): 0 | Signature Projection Score (SPS) ([2]; rat, in vivo): 95* | SPS (Spleen) ([3]; rat, in vivo): 138* | signal intensity for two specific reticulocyte-enriched transcripts as compared with vehicle-treated control animals ([4]; rat, in vivo): significantly decreased

COc1cc([C@@H]2c3cc4c(cc3[C@@H](O[C@@H]3O[C@@H]5CO[C@@H](C)O[C@H]5[C@H](O)[C@H]3O)[C@H]3COC(=O)[C@H]23)OCO4)cc(OC)c1O [ETOPOSIDE, 9-((4,6-0-ethylidene-β-D-glucopyranosyl)oxy)-5,8,8a,9-tetrahydro-5-(4-hydroxy-3,5,-dimethoxyphenyl)furo[3′,4′:6,7]naphtha[2,3-d]-1,3-dioxol-6(5acH)-one]
SPS (Bone Marrow) ([1]; rat, in vivo): 151* | Signature Projection Score (SPS) ([2]; rat, in vivo): 100* | SPS (Spleen) ([3]; rat, in vivo): 146* | signal intensity for two specific reticulocyte-enriched transcripts as compared with vehicle-treated control animals ([4]; rat, in vivo): significantly decreased

NC(=O)NO [HYDROXYUREA, Hydroxyurea]
SPS (Bone Marrow) [1, 5]: 0 | Signature Projection Score (SPS) [2, 6]: 71* | SPS (Spleen) [3, 7]: 130* | signal intensity for two specific reticulocyte-enriched transcripts as compared with vehicle-treated control animals [4, 8]: significantly decreased

O=P1(NCCCl)OCCCN1CCCl (centres unmarked) [IFOSFAMIDE, N,3-bis(2-chloroethyl)tetrahydro-2H-1,3,2-oxazaphosphorin-2-amine 2-oxide]
SPS (Bone Marrow) [1, 5]: 27 | Signature Projection Score (SPS) [2, 6]: 95* | SPS (Spleen) [3, 7]: 24 | signal intensity for two specific reticulocyte-enriched transcripts as compared with vehicle-treated control animals [4, 8]: significantly decreased

Nc1nc2nc[nH]c2c(=S)[nH]1 [THIOGUANINE, 2-amino-1,7-dihydro-6H-purine-6-thione]
SPS (Bone Marrow) ([1]; rat, in vivo): 40 | Signature Projection Score (SPS) ([2]; rat, in vivo): 99* | SPS (Spleen) ([3]; rat, in vivo): 121* | signal intensity for two specific reticulocyte-enriched transcripts as compared with vehicle-treated control animals ([4]; rat, in vivo): significantly decreased

CCCSc1ccc2nc(NC(=O)OC)[nH]c2c1 [albendazole, (5-(propylthio)-1H-benzimidazol-2yl)-carbamic acid methyl ester]
signal intensity for two specific reticulocyte-enriched transcripts as compared with vehicle-treated control animals [4, 8]: significantly decreased
